# Where “and” joins values, the source holds several entries; their conditions need not be identical. Equal entries are not always repeated. Where two headings read alike, the source gives them in different places.
# Key:
# P. aeruginosa PAO1 = experiment: MIC by microbroth dilution, P. aeruginosa PAO1; details: for MIC: Pseudomonas aeruginosa, PAO1, read-out: MIC (μM) (PAO1)
# [1] = tested on: efflux-pump mutant strain (ΔMexABCDXY) (paEP); experiment: MIC by microbroth dilution, efflux-pump mutant P. aeruginosa; details: for MIC: Pseudomonas aeruginosa, read-out: MIC (μM) (paEP)
# From the text: Bacterial Strains. […] The efflux-pump deficient P. aeruginosa strain (ΔMexABCDXY), N150, was derived from PAO1.
# Minimum Inhibitory Concentration (MIC) Measurements.
# paLpxC = paLpxC (Pseudomonas aeruginosa (strain ATCC 15692 / DSM 22644 / CIP 104116 / JCM 14847 / LMG 12228 / 1C / PRS 101 / PAO1), UniProt P47205); experiment: biochemical; assay type: binding; details: for tR (min) Fluorescence assay: tR = 1/koff; for kon: read-out: Kon (μM^−1s^−1); for residence time fold longer than 1: fluorescence assay
# [2] = 37° C., fluorescence competition
# Sequence of paLpxC (P47205 1-299): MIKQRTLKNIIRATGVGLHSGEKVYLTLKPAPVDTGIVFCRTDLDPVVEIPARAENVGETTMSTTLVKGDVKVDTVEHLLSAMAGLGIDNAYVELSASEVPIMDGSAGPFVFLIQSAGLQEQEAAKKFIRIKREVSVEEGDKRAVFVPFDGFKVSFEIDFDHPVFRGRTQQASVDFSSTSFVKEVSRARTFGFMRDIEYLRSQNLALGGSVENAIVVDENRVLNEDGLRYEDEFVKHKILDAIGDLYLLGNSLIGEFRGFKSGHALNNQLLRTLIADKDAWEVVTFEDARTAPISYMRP
SMILES,MIC (P. aeruginosa PAO1),MIC [1],Ki (paLpxC; [2]),tR (min) Fluorescence assay (paLpxC; 37° C.),koff (paLpxC; read-out: Koff (s^−1)),kon (paLpxC),Kon (paLpxC; [2]),koff (paLpxC; [2]),MIC (μM) (PAO1) (P. aeruginosa PAO1; wild-type P. aeruginosa PAO1),MIC (μM) (paEP) ([1]; efflux-pump mutant ΔMexABCDXY),residence time fold longer than 1 (paLpxC; 37° C.),MIC fold lower than that for PT810 (P. aeruginosa PAO1),"binding to paLpxC (Kon, Koff, tR, Ki) (paLpxC; [2])"
"COc1ccc(-c2ccn(CCC(C)(C(=O)NO)S(C)(=O)=O)c(=O)c2)cc1 (racemic) [PT902, N-hydroxy-4-(4-(4-methoxyphenyl)-2-oxopyridin-1(2H)-yl)-2-methyl-2-(methylsulfonyl)butanamide]",3.12 µM,0.8 µM,,,,,,,,,,,
"CC(CCn1ccc(-c2ccc(-c3cn(Cc4ccc([N+](=O)[O-])cc4)nn3)cc2)cc1=O)(C(=O)NO)S(C)(=O)=O (racemic) [PT918, N-hydroxy-2-methyl-2-(methylsulfonyl)-4-(4-(4-(1-(4-nitrobenzyl)-1H-1,2,3-triazol-4-yl)phenyl)-2-oxopyridin-1(2H)-yl)butanamide]",6.25 µM,0.1 µM,7 ± 1 pM,78.5 ± 8.4 min,0.00021 ± 2e-05 s⁻¹,30.7 ± 0.1 µM⁻¹ s⁻¹,,,,,,,
"CC(CCn1ccc(-c2ccc(NC(=O)Cc3ccccc3)cc2)cc1=O)(C(=O)NO)S(C)(=O)=O (racemic) [PT924, N-hydroxy-2-methyl-2-(methylsulfonyl)-4-(2-oxo-4-(4-(2-phenylacetamido)phenyl)pyridin-1(2H)-yl)butanamide]",50 µM,3.12 µM,95.4 ± 16.2 pM,4.0 ± 1.0 min,0.0043 ± 0.0009 s⁻¹,44.8 ± 5.4 µM⁻¹ s⁻¹,,,,,,,
"CC(CCn1ccc(-c2ccc(CN3CCOCC3)cc2)cc1=O)(C(=O)NO)S(C)(=O)=O (racemic) [PT904, N-hydroxy-2-methyl-2-(methylsulfonyl)-4-(4-(4-(morpholinomethyl)phenyl)-2-oxopyridin-1(2H)-yl)butanamide]",50 µM,,96.8 ± 3 pM,4.7 ± 0.2 min,0.0035 ± 0.0001 s⁻¹,36.4 ± 0.4 µM⁻¹ s⁻¹,,,,,,,
CC(CCn1ccc(-c2ccc(N)cc2)cc1=O)(C(=O)NO)S(C)(=O)=O (stereo not drawn) [PT919],,,4 ± 3 pM,121.15 ± 30 min,,,6.427e+07 ± 5.976e+07 M⁻¹ s⁻¹,0.000143 ± 0.00003 s⁻¹,12.5 µM,0.78 µM,,,
"CC(CCn1ccc(-c2ccc(-c3cnnn3Cc3ccccc3)cc2)cc1=O)(C(N)=O)S(C)(=O)=O (stereo not drawn) [PT925, 4-(4-(4-(1-benzyl-1H-1,2,3-triazol-5-yl)phenyl)-2-oxopyridin-1(2H)-yl)-2-methyl-2-(methylsulfonyl)butanamide]",50 µM,12.5 µM,,9 min and 9.0 ± 0.9 min,,,,,,,,,
"CC1(Cn2cc(-c3ccc(-c4ccn(CCC(C)(C(=O)NO)S(C)(=O)=O)c(=O)c4)cc3)nn2)COC1 (racemic) [PT911, N-hydroxy-2-methyl-4-(4-(4-(1-((3-methyloxetan-3-yl)methyl)-1H-1,2,3-triazol-4-yl)phenyl)-2-oxopyridin-1(2H)-yl)-2-(methylsulfonyl)butanamide]",25 µM,1.56 µM,,,,,,,,,,,
"CC(CCn1ccc(-c2ccc(-c3cn(CC4CCCCC4)nn3)cc2)cc1=O)(C(=O)NO)S(C)(=O)=O (racemic) [PT910, 4-(4-(4-(1-(cyclohexylmethyl)-1H-1,2,3-triazol-4-yl)phenyl)-2-oxopyridin-1(2H)-yl)-N-hydroxy-2-methyl-2-(methylsulfonyl)butanamide]",50 µM,3.12 µM,5.5 ± 3.4 pM,100.2 ± 18.5 min,0.00017 ± 3e-05 s⁻¹,31 ± 3 µM⁻¹ s⁻¹,,,,,,,
"CC(CCn1ccc(-c2ccc(-c3cn(CCO)nn3)cc2)cc1=O)(C(=O)NO)S(C)(=O)=O (racemic) [PT912, N-hydroxy-4-(4-(4-(1-(2-hydroxyethyl)-1H-1,2,3-triazol-4-yl)phenyl)-2-oxopyridin-1(2H)-yl)-2-methyl-2-(methylsulfonyl)butanamide]",> 50 µM,> 12.5 µM,3.7 ± 2.3 pM,92.3 ± 11.2 min,0.00018 ± 2e-05 s⁻¹,59.6 ± 22.9 µM⁻¹ s⁻¹,,,,,,,
"CC(CCn1ccc(-c2ccc(-c3cn(Cc4ccccn4)nn3)cc2)cc1=O)(C(=O)NO)S(C)(=O)=O (racemic) [PT914, N-hydroxy-2-methyl-2-(methylsulfonyl)-4-(2-oxo-4-(4-(1-(pyridin-2-ylmethyl)-1H-1,2,3-triazol-4-yl)phenyl)pyridin-1(2H)-yl)butanamide]",6.25 µM,0.2 µM,5.5 ± 3.4 pM,118.5 ± 44.0 min,0.00016 ± 6e-05 s⁻¹,37.2 ± 23 µM⁻¹ s⁻¹,,,,,~3 fold,2 fold,
"CC(CCn1ccc(-c2ccc(-c3cn(Cc4ccncc4)nn3)cc2)cc1=O)(C(=O)NO)S(C)(=O)=O (racemic) [PT915, N-hydroxy-2-methyl-2-(methylsulfonyl)-4-(2-oxo-4-(4-(1-(pyridin-4-ylmethyl)-1H-1,2,3-triazol-4-yl)phenyl)pyridin-1(2H)-yl)butanamide]",50 µM,6.25 µM,,,,,,,,,,,
"C[C@@H](O)C(NC(=O)c1ccc(-c2cn(Cc3ccccc3)nn2)cc1)C(=O)NO (stereo partly drawn) [PT903, 4-(1-benzyl-1H-1,2,3-triazol-4-yl)-N-((3R)-3-hydroxy-1-(hydroxyamino)-1-oxobutan-2-yl)benzamide]",> 50 µM,> 12.5 µM,,,,,,,,,,,No binding was observed
"CC(CCn1ccc(-c2ccc(-c3cn(Cc4cccnc4)nn3)cc2)cc1=O)(C(=O)NO)S(C)(=O)=O (racemic) [PT917, N-hydroxy-2-methyl-2-(methylsulfonyl)-4-(2-oxo-4-(4-(1-(pyridin-3-ylmethyl)-1H-1,2,3-triazol-4-yl)phenyl)pyridin-1(2H)-yl)butanamide]",,,3.2 ± 0.2 pM,121.3 ± 4.4 min,0.00014 ± 1e-05 s⁻¹,42.8 ± 1.3 µM⁻¹ s⁻¹,,,,,~3 fold,,
"CC(CCn1ccc(-c2ccc(C(=O)NCc3ccccc3)cc2)cc1=O)(C(=O)NO)S(C)(=O)=O (racemic) [PT923, N-benzyl-4-(1-(4-(hydroxyamino)-3-methyl-3-(methylsulfonyl)-4-oxobutyl)-2-oxo-1,2-dihydropyridin-4-yl)benzamide]",25 µM,3.12 µM,274 ± 76.6 pM,8.0 ± 1.2 min,0.0021 ± 0.0003 s⁻¹,23.8 ± 18.8 µM⁻¹ s⁻¹,,,,,,,
"COc1ccc(-c2ccc(CNC3(C(=O)NO)CCS(=O)(=O)CC3)cc2F)cc1 [PT921, 4-(((2-fluoro-4′-methoxy-[1,1′-biphenyl]-4-yl)methyl)amino)-N-hydroxytetrahydro-2H-thiopyran-4-carboxamide 1,1-dioxide]",0.8 µM,0.1 µM,14.4 ± 2.5 pM,34.3 ± 1.0 min,0.00049 ± 1e-05 s⁻¹,34.5 ± 6.3 µM⁻¹ s⁻¹,,,,,,,
"CC(CCn1ccc(-c2ccc(-c3cn(Cc4ccncn4)nn3)cc2)cc1=O)(C(=O)NO)S(C)(=O)=O (racemic) [PT916, N-hydroxy-2-methyl-2-(methylsulfonyl)-4-(2-oxo-4-(4-(1-(pyrimidin-4-ylmethyl)-1H-1,2,3-triazol-4-yl)phenyl)pyridin-1(2H)-yl)butanamide]",50 µM,3.12 µM,4.2 ± 2.2 pM,102.7 ± 20.2 min,0.00017 ± 3e-05 s⁻¹,44.3 ± 14.5 µM⁻¹ s⁻¹,,,,,,,

# Source: patent US20250099433A1, “COMPOSITION AND METHOD FOR TREATMENT OF GRAM NEGATIVE BACTERIAL INFECTION” (The Research Foundation for the State University of New York, priority 2021, published 2025)
